US11479538B2, “Tetrazolone-substituted dihydropyridinone MGAT2 inhibitors” (BRISTOL-MYERS SQUIBB COMPANY, priority 2014, dated 2022)

Target: human MGAT-2 (Homo sapiens (Human), UniProt Q3SYC2)
Experiment: MGAT LCMS Assay
Assay type: biochemical
Details: human recombinant MGAT-2 membranes expressed in Sf9 cells; LC/MS readout of diolein; read-out: h-MGAT LCMS IC50
Protocol: The MGAT enzyme reactions were performed in Corning FALCON® 96-well polypropylene plates, in a total volume of 60 μL of 50 mM potassium phosphate buffer pH 7.4, containing a final concentration of 100 μM 2-oleoylglycerol, 15 μM oleoyl-coenzyme A and […] human or mouse MGAT-2 or […] rat recombinant MGAT-2 membranes expressed in Sf9 cells. Assay plates were run through a fully automated robotics system and shaken for 5 seconds every minute for a total 10 minutes. The reactions were then quenched with 120 μL of ice cold methanol containing 1 μg/mL 1,2-distearoyl-rac-glycerol as the internal standard. Plates were shaken for 2 minutes and spun down to remove protein precipitation. After the spin, samples were transferred to LC/MS compatible PCR plates. For LC/MS analysis, a ThermoFisher Surveyor pump, utilizing a Waters SYMMETRY® C8, 50×2.1 mm column, was used for the chromatography of enzyme products. The buffer system consists of 0.1% formic acid in water with a mobile phase consisting 0.1% formic acid in methanol. The shallow gradient is 90-100% mobile phase in 0.2 min with a total run time of 2.3 min. […]
The exemplified Examples disclosed below were tested in the MGAT2 in vitro assays described above and were found having MGAT2 inhibitory activity. Table 1 below lists human MGAT2 IC50 values measured for the following examples.

Sequence of human MGAT-2 (Q3SYC2 whole entry): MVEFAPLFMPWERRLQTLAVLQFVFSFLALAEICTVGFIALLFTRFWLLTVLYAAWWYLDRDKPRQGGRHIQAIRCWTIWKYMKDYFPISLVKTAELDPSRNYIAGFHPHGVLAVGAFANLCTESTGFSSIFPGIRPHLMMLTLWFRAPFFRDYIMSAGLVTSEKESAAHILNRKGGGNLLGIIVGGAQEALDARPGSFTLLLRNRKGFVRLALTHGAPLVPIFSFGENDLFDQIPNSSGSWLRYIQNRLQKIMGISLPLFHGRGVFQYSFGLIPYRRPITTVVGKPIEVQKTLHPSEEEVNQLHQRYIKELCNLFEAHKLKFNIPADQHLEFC

Structure (SMILES): O=C1N[C@@](c2ccc(OCCCC(F)(F)F)cc2F)(C(F)(F)F)CC(c2ncc(C3CC3)s2)=C1n1nn[nH]c1=O [Example 22, (S)-4-(5-cyclopropylthiazol-2-yl)-6-(2-fluoro-4-(4,4,4-trifluorobutoxy)phenyl)-3-(5-oxo-4,5-dihydro-1H-tetrazol-1-yl)-6-(trifluoromethyl)-5,6-dihydropyridin-2(1H)-one]
- IC50: 2 nM
